Data on 63 compounds can be found in ChEMBL document CHEMBL5725356, “Anti-fibrotic pyridinones” (2017).

This experiment in a line: ET-1 Assay: Fibroblasts (primary human lung and dermal, HFL-1, 3T3 etc) are seeded in 96-well plates at ~15000 cells/well and serum starved for 0-48 hours. After media exchange, compounds serially diluted in DMSO are added to the cells. After a brief incubation of ~30 min, stimulants (TGFb, serum, LPA etc) are added followed by further incubation for 16-48 hours. Media is then harvested and stored frozen in plate format for later endothelin-1 (ET-1) determination by ELISA. Toxicity measurements are made using the ATPlite kit (Perkin-Elmer). ET-1 is quantified using an ELISA kit (R&D Systems). The amount of ET-1 produced in the assay wells are back-calculated using the ELISA standard. The ability of a compound to inhibit ET-1 production is typically analyzed by fitting dose-response curves to a 4-parameter logistic function to obtain an EC50 value. To be noted: HFL1.
Consider `CCn1nc2c(-c3cn[nH]c3)cn(-c3ccc(OC(F)(F)F)cc3)c(=O)c2n1`, for which the EC50 was below 50 µM. With `CCn1nc2c(-c3cnn(C)c3)cn(-c3ccc(OCCOC)cc3)c(=O)c2n1` the entry was “in the range around 125 µM”. In the case of `CC(C)n1cc(-c2cn(-c3ccc(OC(F)(F)F)cc3)c(=O)c3c2ncn3C)cn1`, the 50% effective concentration (EC50) is below 50 µM. For `CCn1cnc2c(-c3cnn(C)c3)cn(-c3ccc(OC(F)(F)F)cc3)c(=O)c21`, the concentration giving a half-maximal response (EC50) is below 50 µM.

Take `CCOc1ccc(-n2cc(-c3ccnnc3)c3nn(CC)nc3c2=O)c(C)c1`: the concentration giving a half-maximal response (EC50) was below 50 µM. For the compound `O=c1c(-c2ccc(F)cc2)c(-c2ccc(OC(F)(F)F)cc2)c1=O`, the 50% effective concentration (EC50) was below 50 µM.

Regarding `CCn1ccc2ccn(-c3ccc(OC(F)(F)F)cc3)c(=O)c21`, the EC50 was below 50 µM. With `CCOc1ccc(-n2cc(-c3cn[nH]c3)c3ccn(C)c3c2=O)c(C)c1`, the EC50 is below 50 µM. Under `CCn1cc(-c2cn(-c3ccc(OC(F)(F)F)cc3)c(=O)c3c2ncn3CC)cn1` stands below 50 µM; under `CCOc1ccc(-n2cc(-c3ccnnc3)c(C)cc2=O)c(C)c1`, below 50 µM. Regarding `CCn1ccc2c(-c3cnn(C)c3)c[nH]c(=O)c21`, the concentration giving a half-maximal response (EC50) was below 50 µM. Under `COCCn1ccc2c(-c3cnn(C)c3)cn(-c3ccc(OC(F)(F)F)cc3)c(=O)c21` stands below 50 µM. Under `Cn1ccc2c(-c3cn[nH]c3)cn(-c3ccc(Cl)cc3)c(=O)c21` stands below 50 µM. Under `O=c1c2[nH]ccc2c(-c2cn[nH]c2)cn1-c1ccc(Cl)cc1` stands below 50 µM. Take `CCn1nnc2c(-c3ccc(F)cc3)cn(-c3ccc(OC(F)(F)F)cc3)c(=O)c21`: the concentration for a half-maximal effect (EC50) is below 50 µM. With `Cn1ccc2c(-c3cn[nH]c3)cn(-c3ccc(OC(F)(F)F)cc3)c(=O)c21` the figure was below 50 µM. With `O=c1c2[nH]cnc2c(-c2cn[nH]c2)cn1-c1ccc(OC(F)(F)F)cc1` the figure was below 50 µM. With `Cn1cc(-c2cn(-c3ccc(OC(F)(F)F)cc3)c(=O)c3c2ccn3CCO)cn1` the figure was below 50 µM.

For `CCn1cnc2c(-c3cnn(C)c3)c[nH]c(=O)c21`, the 50% effective concentration (EC50) result was “in the range around 125 µM”. Take `CCn1nnc2c(=O)n(-c3ccc(OC(F)(F)F)cc3)cc(-c3cnn(C)c3)c21`: the half-maximal effective concentration (EC50) was below 50 µM.

Turning to `Cn1cc(-c2cn(-c3ccc(OC(F)(F)F)cc3)c(=O)c3[nH]ccc23)cn1`, the EC50 was below 50 µM. Under `Cn1cc(-c2cn(-c3ccc(OC(F)(F)F)cc3)c(=O)c3c2CCN3C(=O)OC(C)(C)C)cn1` stands below 50 µM; under `Cn1cc(-c2cn(-c3ccc(Cl)cc3)c(=O)c3c2ccn3C)cn1`, below 50 µM; under `CCn1ccc2c(=O)n(-c3ccc(OC(F)(F)F)cc3)cc(-c3ccc(F)cc3)c21`, below 50 µM. Under `CCn1nnc2c(-c3cnn(C)c3)cn(-c3ccc(OC(F)(F)F)cc3)c(=O)c21` stands below 50 µM; under `O=c1c2[nH]nnc2c(-c2cn[nH]c2)cn1-c1ccc(OC(F)(F)F)cc1`, “in the range around 125 µM”; under `CCn1cnc2c(-c3cn[nH]c3)cn(-c3ccc(OC(F)(F)F)cc3)c(=O)c21`, below 50 µM. Under `Cn1cc(-c2cn(-c3ccc(OC(F)(F)F)cc3)c(=O)c3c2ncn3C)cn1` stands below 50 µM; under `Cn1cc(-c2cn(-c3ccc(C#N)cc3)c(=O)c3c2ccn3C)cn1`, above 200 µM. Take `CCn1nnc2c(-c3cn[nH]c3)cn(-c3ccc(OC(F)(F)F)cc3)c(=O)c21`: the EC50 was below 50 µM. Under `O=c1c2[nH]ncc2c(-c2ccc(F)cc2)cn1-c1ccc(OC(F)(F)F)cc1` stands below 50 µM; under `Cn1cc(-c2cn(-c3ccc(OC(F)(F)F)cc3)c(=O)c3nnn(CCF)c23)cn1`, below 50 µM. For `Cn1cc(-c2c[nH]c(=O)c3[nH]ccc23)cn1`, the concentration giving a half-maximal response (EC50) was below 50 µM.

As to `O=c1c2[nH]ccc2c(-c2cn[nH]c2)cn1-c1ccc(OC(F)(F)F)cc1`, the EC50 is below 50 µM.

On to `CC(C)n1nnc2c(-c3cnn(C)c3)cn(-c3ccc(OC(F)(F)F)cc3)c(=O)c21`, for which the 50% effective concentration (EC50) was below 50 µM. Under `CCOc1ccc(-n2cc(-c3cn[nH]c3)c3cc[nH]c3c2=O)c(C)c1` stands below 50 µM; under `N#Cc1ccc(-n2cc(-c3cn[nH]c3)c3cc[nH]c3c2=O)cc1`, “in the range around 125 µM”; under `CCn1ccc2c(-c3cnn(CCO)c3)cn(-c3ccc(OC(F)(F)F)cc3)c(=O)c21`, below 50 µM. Under `Cc1nc2c(=O)n(-c3ccc(OC(F)(F)F)cc3)cc(-c3cn[nH]c3)c2n1C` stands below 50 µM; under `CC(C)n1ccc2c(-c3cn[nH]c3)cn(-c3ccc(OC(F)(F)F)cc3)c(=O)c21`, below 50 µM; under `Cn1cc(-c2c[nH]c(=O)c3[nH]nnc23)cn1`, above 200 µM. With `CCn1cc2c(-c3cnn(C)c3)cn(-c3ccc(OC(F)(F)F)cc3)c(=O)c2n1` the figure was below 50 µM; with `CC(C)N1N=NC2C(=O)N(c3ccc(OC(F)(F)F)cc3)C=C(c3cnn(C)c3)C21` (stereo not drawn), “in the range around 125 µM”.

Regarding `O=c1c2[nH]nnc2c(-c2ccc(F)cc2)cn1-c1ccc(OC(F)(F)F)cc1`, the EC50 result is “in the range around 125 µM”. In the case of `Cc1cc(=O)n(-c2cccc(NC(N)=O)c2)cc1-c1cnn(C)c1`, the EC50 was below 50 µM. With `Cn1ccc2c(-c3cn[nH]c3)cn(-c3ccc(C#N)cc3)c(=O)c21` the figure was below 50 µM; with `Cn1cc(-c2cn(-c3ccc(OC(F)(F)F)cc3)c(=O)c3c2ccn3C2CC2)cn1`, below 50 µM; with `Cn1cc(-c2cn(-c3ccc(OC(F)(F)F)cc3)c(=O)c3[nH]nnc23)cn1`, below 50 µM.

In the case of `Cn1cc(-c2cn(-c3ccc(Cl)cc3)c(=O)c3[nH]ccc23)cn1`, the EC50 was below 50 µM. With `CCOc1ccc(-n2cc(-c3cnn(C)c3)c3nn(CC)nc3c2=O)c(C)c1` the entry was “in the range around 125 µM”; with `CCn1nc2c(-c3cnn(C)c3)cn(-c3ccc(OC(F)(F)F)cc3)c(=O)c2n1`, below 50 µM; with `CCn1nnc2c(=O)[nH]cc(-c3cnn(C)c3)c21`, above 200 µM.

Consider `O=c1c2c(ccn2C2CC2)c(-c2cn[nH]c2)cn1-c1ccc(OC(F)(F)F)cc1`, for which the half-maximal effective concentration (EC50) is below 50 µM. Under `CCn1nnc2c(=O)n(-c3ccc(OC(F)(F)F)cc3)cc(-c3ccc(F)cc3)c21` stands below 50 µM; under `CCn1cnc2c(-c3cnn(C(C)C)c3)cn(-c3ccc(OC(F)(F)F)cc3)c(=O)c21`, below 50 µM. `CC(C)n1ccc2c(-c3cnn(C)c3)cn(-c3ccc(OC(F)(F)F)cc3)c(=O)c21`: the concentration giving a half-maximal response (EC50) was below 50 µM. Turning to `O=c1c2[nH]ccc2ccn1-c1ccc(OC(F)(F)F)cc1`, the EC50 is below 50 µM.

On to `CCn1cnc2c(=O)n(-c3ccc(OC(F)(F)F)cc3)cc(-c3cnn(C)c3)c21`, for which the EC50 was above 200 µM. Take `Cn1cc(-c2cn(-c3ccc(OC(F)(F)F)cc3)c(=O)c3nn(CCF)nc23)cn1`: the concentration for a half-maximal effect (EC50) was below 50 µM.

With `Cc1nc2c(=O)n(-c3ccc(OC(F)(F)F)cc3)cc(-c3cnn(C)c3)c2n1C`, the half-maximal effective concentration (EC50) entry was “in the range around 125 µM”. On to `CCn1nc2c(-c3ccc(F)cc3)cn(-c3ccc(OC(F)(F)F)cc3)c(=O)c2n1`, for which the EC50 is above 200 µM. Under `CCOc1ccc(-c2c(-c3ccc(F)cc3)c(=O)c2=O)c(C)c1` stands below 50 µM; under `Cn1cc(-c2cn(-c3ccc(OC(F)(F)F)cc3)c(=O)c3c2nnn3CCF)cn1`, “in the range around 125 µM”.

The term EC50 denotes the concentration needed to bring the measured effect to its halfway point.
